Experiments:
[1] = tested on: Salmonella enterica ATCC 10708; assay: BCT test (bacterial contact time), 60 s, log reduction / effect fraction; CI by Compusyn; format: cell-based; conditions: Salmonella enterica, ATCC10708, 1 min, BCT 60 s, in 25% EtOH; for log reduction at 0.25 % strength: Dose 0.25 % w/v; for log reduction at 0.3 % strength: Dose 0.3 % w/v
Protocol: (§1) E. coli, S. aureus, P. aeruginosa, and S. enterica: Separate suspensions of the E. coli ATCC 10536 strain, S. aureus ATCC 6538 strain, Pseudomonas aeruginosa ATCC 15442 strain, and the Salmonella enterica ATCC 10708 strain were prepared as follows: Stock cultures (stored at −80° C.) were thawed and sub-cultured onto Tryptic Soy Agar (TSA) agar plate media, and incubated at 37° C. for 24 h to obtain single colonies. Single colonies of the primary cultures were streaked onto TSA plates and incubated at 37° for 24 h to generate secondary cultures. Single colonies of secondary cultures picked and used to inoculate into 50 mL of TSB broth. The inoculated TSB broth was incubated at 37° C. at 180 rpm for 18 h. Aliquots (0.5 ml) of the 18 h culture were inoculated into 50 ml of fresh TSB broth, and incubated at 37° C. at 180 rpm for 2-3 hours. When the OD600 nm value of the broth reached 1-2, cells were harvested by centrifugation at 5000 rpm for 10 min, and then resuspended in fresh TSB broth at a concentration of 1-5×10^8 CFU/mL. These suspensions were used as the bacterial suspensions for the BCT test.
(§2) BCT Test: Test compositions at a range of concentrations (either combinations of more than one perfume ingredient, and comparative compositions comprising the single perfume ingredients) were prepared in ethanol. Five replicates of each test composition were added into 96-well microtiter plates (120 μl per well), with row B containing control compositions containing the ethanol solution alone. 120 μl of bacterial cell suspensions at a concentration of approximately 1×10^8 bacteria per mL (as prepared above) were added to each well of the microtiter plate. The bacterial suspensions were incubated with the test solutions for 45, 60, or 120 seconds. Following the incubation of the bacterial suspensions with the test solutions, serial dilutions of the bacterial suspensions were generated (three serial 1:10 dilutions, followed by 17 serial 1:2 dilutions), in multiwell microtiter plates.
(§3) Each plate was sealed and incubated at 37° C. under agitation (180 rpm). After incubation, the turbidity of the wells (OD600 nm) was determined using a Tecan microplate reader. Turbid wells were regarded as positive growth, due to the presence of viable cells. The total number of viable cells (log CFU) for each sample was calculated. And the log reduction for each test composition at the final concentration (dose) was calculated against the control sample of the ethanol solution.
(§4) Determination of Synergy via the Combination Index (CI): The CI was calculated using Compusyn software (ComboSyn, Inc., as created by Dr. Dorothy Chou in 2005), according to the manufacturer's instructions. The concentration of each test composition (combinations of more than one perfume ingredient, and comparative compositions comprising the single perfume ingredients used to generate the combination) and their corresponding effect fraction was entered, and the corresponding CI calculated.
(§5) When the calculated CI values were less than 0.9, the combination of perfume ingredients was regarded as having synergistic effect. When the calculated CI was between 1.0 a 0.9, the combination of perfume ingredients was regarded as having an additive effect. When the calculated CI was greater than 1.0, the combination of perfume ingredients was regarded as having an antagonistic effect.

[2] = tested on: Pseudomonas aeruginosa ATCC 15442; assay: as above; format: cell-based; conditions: Pseudomonas aeruginosa, ATCC15442, 1 min, BCT 60 s, in 25% EtOH; for log reduction at 0.25 % strength: Dose 0.25 % w/v; for log reduction at 0.4 % strength: Dose 0.4 % w/v; for log reduction at 0.5 % strength: Dose 0.5 % w/v
Protocol: as §1, §2, §3, §4, §5

C. xerosis ATCC 373 = assay: BCT test (bacterial contact time), 120 s, log reduction / effect fraction; CI by Compusyn; format: cell-based; conditions: Corynebacterium xerosis, ATCC373, 2 min, contact 120 s, 25% EtOH; for log reduction at 0.5 % strength: dose 0.5% w/v; for log reduction at 0.75 % strength: dose 0.75% w/v; for log reduction at 1 % strength: dose 1.0% w/v
Protocol: C. xerosis: Suspensions of the C. xerosis ATCC 373 strain were prepared as follows: Stock cultures (stored at −80° C.) were thawed and subcultured onto Tryptic Soy Agar media with Tween 80 (TSA-TW80), and incubated at 37° C. for 48 h. The primary cultures were subcultured onto TSA-TW80 again, to prepare the secondary cultures. Single colonies of the secondary cultures were selected and used to inoculate 30 ml brain heart infusion broth with Tween 80 (BHI-TW80). The inoculated broth was incubated at 37° C. at 180 rpm for 24 h. Aliquots (1 ml) of the 24 h culture were inoculated into 30 ml of fresh BHI-TW80 broth media, and incubated at 37° C. at 180 rpm for 48 h. Aliquots (2-3 ml) of the 48 h culture were inoculated into four 50 ml of fresh BHI-TW80 broth media, and incubated at 37° C. 180 rpm for 4-6 hrs. When the OD 600 nm reached the target value of 1.6, cells were harvested by centrifugation at 5000 rpm for 10 min, and then resuspended in the same fresh BHI-TW80 at a concentration of 10^9 to 10^10 cfu/mL. This suspension was used as the bacterial suspension for the BCT test.
as §2, §3, §4, §5

S. aureus ATCC 6538 = assay: BCT test (bacterial contact time), 60 s, log reduction / effect fraction; CI by Compusyn; format: cell-based, Staphylococcus aureus; conditions: Staphylococcus aureus, ATCC6538, 1 min, 60 s, in 25% EtOH
Protocol: as §1, §2, §3, §4, §5

Compound `CC(=O)OCc1ccccc1` [Benzyl acetate, benzyl acetate] has a log reduction at 0.15 % strength ([1]; Dose 0.15 % w/v) of 0, a log reduction at 0.2 % strength ([1]; Dose 0.2 % w/v) of 1.9 and a log reduction at 0.225 % strength ([1]; Dose 0.225 % w/v) of 5. It also gave a log reduction at 0.25 % strength [1] of 6.5, a log reduction at 0.3 % strength [1] of 7.7 and a log reduction at 0.2 % strength ([2]; Dose 0.2 % w/v, read-out: Log reduction) of 1.2. For the same compound, the log reduction at 0.25 % strength ([2]; read-out: Log reduction) was 3.9, the log reduction at 0.4 % strength ([2]; read-out: Log reduction) was 7.4 and the log reduction at 0.45 % strength ([2]; Dose 0.45 % w/v, read-out: Log reduction) was 7.4. The log reduction at 0.5 % strength [2] was 7.4, the log reduction at 0.25 % strength (C. xerosis ATCC 373; dose 0.25% w/v, read-out: Log reduction) was 0 and the log reduction at 0.4 % strength (C. xerosis ATCC 373; dose 0.4% w/v, read-out: Log reduction) was 1.1. The log reduction at 0.5 % strength (C. xerosis ATCC 373) was 2.8, the log reduction at 0.75 % strength (C. xerosis ATCC 373) was 4.6 and the log reduction at 1 % strength (C. xerosis ATCC 373) was 5.2. For the same compound, the log reduction at 0.25 % strength (S. aureus ATCC 6538; dose 0.250 % w/v, read-out: Log reduction) was 0.8, the log reduction at 0.3 % strength (S. aureus ATCC 6538; dose 0.300 % w/v, read-out: Log reduction) was 1.9 and the log reduction at 0.35 % strength (S. aureus ATCC 6538; dose 0.350 % w/v, read-out: Log reduction) was 5.1. For the same compound, the log reduction at 0.4 % strength (S. aureus ATCC 6538; dose 0.400 % w/v, read-out: Log reduction) was 6.7 and the log reduction at 0.45 % strength (S. aureus ATCC 6538; dose 0.45 % w/v) was 7.1.

In the case of `Cc1ccc2c(c1)OCC(=O)CO2` [Calone, 7-methyl-2H-1,5-benzodioxepin-3(4H)-one], the log reduction at 0.25 % strength [1] is reported as 0.7, the log reduction at 0.3 % strength [1] is reported as 2.7 and the log reduction at 0.35 % strength ([1]; Dose 0.350 % w/v) is reported as 4.2. For the same compound, the log reduction at 0.4 % strength ([1]; Dose 0.4 % w/v) was 7.2, the log reduction at 0.45 % strength ([1]; Dose 0.450 % w/v) was 7.8 and the log reduction at 0.25 % strength ([2]; read-out: Log reduction) was 0.3. For the same compound, the log reduction at 0.3 % strength ([2]; Dose 0.3 % w/v, read-out: Log reduction) was 1, the log reduction at 0.35 % strength ([2]; Dose 0.35 % w/v) was 2.7 and the log reduction at 0.4 % strength ([2]; read-out: Log reduction) was 4.3. The log reduction at 0.5 % strength [2] was 6.9, the log reduction at 0.5 % strength (C. xerosis ATCC 373) was 0.2 and the log reduction at 0.75 % strength (C. xerosis ATCC 373) was 0.6. The log reduction at 1 % strength (C. xerosis ATCC 373) was 3.2, the log reduction at 1.25 % strength (C. xerosis ATCC 373; dose 1.25% w/v) was 6 and the log reduction at 1.5 % strength (C. xerosis ATCC 373; dose 1.5% w/v) was 6.8. The log reduction at 0.6 % strength (S. aureus ATCC 6538; dose 0.600 % w/v, read-out: Log reduction) was 1.6, the log reduction at 0.7 % strength (S. aureus ATCC 6538; dose 0.700 % w/v, read-out: Log reduction) was 2.5 and the log reduction at 0.8 % strength (S. aureus ATCC 6538; dose 0.800 % w/v) was 6.9. The log reduction at 0.9 % strength (S. aureus ATCC 6538; dose 0.900 % w/v) was 6.9 and the log reduction at 1 % strength (S. aureus ATCC 6538; dose 1.000 % w/v, read-out: Log reduction) was 6.9.

— US12419305B2, “Antimicrobial compositions” (Firmenich SA, priority 2018, dated 2025)
